{"source": "ChEMBL document CHEMBL6096661", "about": "“Synthesis, biological evaluation and mechanism study of a novel indole-pyridine chalcone derivative as antiproliferative agent against tumor cells through dual targeting tubulin and HK2” (Eur J Med Chem, 2025)", "key": {"[1]": {"test_system": "MDA-MB-231", "assay": "Induction of ROS generation in human MDA-MB-231 cells assessed as increase in green fluorescence at 0.5 uM incubated for 24 hrs by DCFH-DA staining based flow cytometric analysis (reference value: 62.3 %)", "assay_type": "functional"}, "[2]": {"test_system": "HCT-116", "assay": "Antiproliferative activity against human HCT-116 cells assessed as inhibition of cell proliferation incubated for 4 days by CCK-8 assay", "assay_type": "functional, cell-based", "details": "HCT-116, 96 h"}, "[3]": {"test_system": "LoVo", "assay": "Antiproliferative activity against human LoVo cells assessed as inhibition of cell proliferation incubated for 3 days by CCK-8 assay", "assay_type": "functional, cell-based", "details": "72 h"}, "[4]": {"test_system": "MDA-MB-231", "assay": "Induction of apoptosis in human MDA-MB-231 cells assessed as pyknotic bright nuclei at 0.5 to 2 uM incubated for 24 hrs by Hoechst 33342 staining based fluorescence microscopic analysis", "assay_type": "functional, cell-based", "details": "dose 0.5-2 µM"}, "[5]": {"target": "T1, Hexokinase-2 (Homo sapiens) (UniProt P52789)", "T1 sequence (whole entry)": "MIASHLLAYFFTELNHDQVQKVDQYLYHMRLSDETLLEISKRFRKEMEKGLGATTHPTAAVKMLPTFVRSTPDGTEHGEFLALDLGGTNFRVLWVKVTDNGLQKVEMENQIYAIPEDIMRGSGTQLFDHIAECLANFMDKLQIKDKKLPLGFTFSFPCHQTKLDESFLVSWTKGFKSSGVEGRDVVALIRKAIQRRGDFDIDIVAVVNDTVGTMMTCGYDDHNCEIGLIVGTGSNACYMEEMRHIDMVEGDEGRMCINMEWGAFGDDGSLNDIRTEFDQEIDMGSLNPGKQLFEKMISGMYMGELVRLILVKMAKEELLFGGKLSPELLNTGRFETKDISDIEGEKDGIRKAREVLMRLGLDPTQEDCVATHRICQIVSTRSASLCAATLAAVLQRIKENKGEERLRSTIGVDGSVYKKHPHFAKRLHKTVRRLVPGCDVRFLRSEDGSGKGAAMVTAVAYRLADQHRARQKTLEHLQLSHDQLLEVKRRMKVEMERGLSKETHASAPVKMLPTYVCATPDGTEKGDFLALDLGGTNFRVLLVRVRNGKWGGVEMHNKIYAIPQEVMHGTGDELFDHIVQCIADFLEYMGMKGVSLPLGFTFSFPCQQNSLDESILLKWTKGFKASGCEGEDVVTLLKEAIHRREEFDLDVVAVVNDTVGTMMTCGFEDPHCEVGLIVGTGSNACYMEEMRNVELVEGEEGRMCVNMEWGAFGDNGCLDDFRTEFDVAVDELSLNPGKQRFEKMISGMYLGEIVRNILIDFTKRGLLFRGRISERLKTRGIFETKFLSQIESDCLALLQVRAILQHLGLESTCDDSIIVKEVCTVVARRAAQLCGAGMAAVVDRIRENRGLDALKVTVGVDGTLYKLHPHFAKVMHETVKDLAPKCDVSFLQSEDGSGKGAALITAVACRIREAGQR", "assay": "Non-competitive inhibition of human HK2 transfected in Escherichia coli BL21 (DE) assessed as constant Km with decrease in Vmax at 0.25 to 4 uM using ATP as substrate by Lineweaver-Burk plot analysis", "details": "dose 0.25-4 µM"}, "[6]": {"test_system": "MDA-MB-231", "assay": "Inhibition of colony formation in human MDA-MB-231 cells assessed as reduction in number of colonies at 1 uM incubated for 8 days by crystal violet staining based assay", "assay_type": "functional, cell-based", "details": "time 8.0 day"}, "[7]": {"test_system": "MDA-MB-231", "assay": "Induction of apoptosis in human MDA-MB-231 cells assessed as increase in total apoptotic cells by annexin-V/PI double staining based flow cytometric analysis", "assay_type": "functional, cell-based", "details": "dose 0.5-2 µM"}, "[8]": {"test_system": "MDA-MB-231", "assay": "Induction of apoptosis in human MDA-MB-231 cells assessed as nuclear shrinkage at 0.5 to 2 uM incubated for 24 hrs by Hoechst 33342 staining based fluorescence microscopic analysis", "assay_type": "functional, cell-based", "details": "dose 0.5-2 µM"}, "[9]": {"test_system": "MDA-MB-231", "assay": "Antiproliferative activity against human MDA-MB-231 cells assessed as inhibition of cell proliferation incubated for 3 days by CCK-8 assay", "assay_type": "functional, cell-based", "details": "MDA-MB-231, 72 h"}, "[10]": {"test_system": "MDA-MB-231", "assay": "Antiproliferative activity against human MDA-MB-231 cells assessed as reduction in cell proliferation incubated for 48 hrs by CCK-8 assay", "assay_type": "functional, cell-based", "details": "MDA-MB-231, 48 h"}, "[11]": {"assay": "Selectivity ratio of IC50 for cytotoxicity against green monkey Vero cells to IC50 for antiproliferative activity against human LoVo cells", "assay_type": "toxicity, cell-based", "details": "Vero cells versus LoVo cells, read-out: Ratio IC50"}, "[12]": {"test_system": "MDA-MB-231", "assay": "Induction of apoptosis in human MDA-MB-231 cells assessed as decrease in Caspase 3 level by Western blotting analysis", "assay_type": "functional, cell-based", "details": "dose 0.5-2 µM"}, "[13]": {"target": "T2, Tubulin (Homo sapiens) (UniProt P68371+Q9H4B7+P0DPH7+P68366+Q13509+Q71U36+P04350+Q3ZCM7+P07437+P68363+Q9BQE3+Q6PEY2+Q13885+Q9BVA1+Q9BUF5)", "assay": "Disruption of microtubule network in human MDA-MB-231 cells assessed as point-like fiber structure at 1 to 2 uM incubated for 24 hrs by DAPI staining based fluorescence microscopic analysis", "assay_type": "cell-based", "details": "dose 1-2 µM"}, "[14]": {"test_system": "Mitochondrial membrane", "assay": "[…] in human MDA-MB-231 cells at 0.5 uM by JC-1 fluorescent probe based flow cytometric analysis (reference value: 2.56 %)"}, "[15]": {"test_system": "MDA-MB-231", "assay": "Antiproliferative activity against human MDA-MB-231 cells assessed as inhibition of cell proliferation incubated for 1 day by CCK-8 assay", "assay_type": "functional, cell-based", "details": "MDA-MB-231, 24 h"}, "[16]": {"test_system": "MDA-MB-231", "assay": "Induction of apoptosis in human MDA-MB-231 cells assessed as increase in total apoptotic cells at 0.5 to 2 uM by annexin-V/PI double staining based flow cytometric analysis", "assay_type": "functional, cell-based", "details": "dose 0.5-2 µM"}, "[17]": {"test_system": "LoVo", "assay": "Antiproliferative activity against human LoVo cells assessed as inhibition of cell growth incubated for 48 hrs by CCK-8 assay", "assay_type": "functional, cell-based"}, "[18]": {"test_system": "LoVo", "assay": "Antiproliferative activity against human LoVo cells assessed as inhibition of cell proliferation incubated for 1 day by CCK-8 assay", "assay_type": "functional, cell-based", "details": "24 h"}, "[19]": {"test_system": "MDA-MB-231", "assay": "Induction of morphological changes in human MDA-MB-231 assessed as loss of adhesion properties at 0.5 to 2 uM incubated for 48 hrs by microscopic analysis", "assay_type": "functional, cell-based", "details": "dose 0.5-2 µM"}, "[20]": {"test_system": "MDA-MB-231", "assay": "Induction of apoptosis in human MDA-MB-231 cells assessed as fragmented bright nuclei at 0.5 to 2 uM incubated for 24 hrs by Hoechst 33342 staining based fluorescence microscopic analysis", "assay_type": "functional, cell-based", "details": "dose 0.5-2 µM"}, "[21]": {"test_system": "BXPC-3", "assay": "Antiproliferative activity against human BXPC-3 cells assessed as inhibition of cell growth incubated for 48 hrs by CCK-8 assay", "assay_type": "functional, cell-based", "details": "BXPC-3, 48 h"}, "[22]": {"target": "T2, Tubulin (Homo sapiens)", "assay": "Disruption of microtubule network in human MDA-MB-231 cells assessed as disorganized microtubule network at 1 to 2 uM incubated for 24 hrs by DAPI staining based fluorescence microscopic analysis", "assay_type": "cell-based", "details": "dose 1-2 µM"}, "[23]": {"test_system": "MDA-MB-231", "assay": "Induction of apoptosis in human MDA-MB-231 cells assessed as upregulation of cleaved-caspase 3 level by Western blotting analysis", "assay_type": "functional, cell-based", "details": "dose 0.5-2 µM"}, "[24]": {"test_system": "MDA-MB-231", "assay": "Induction of ROS generation in human MDA-MB-231 cells assessed as increase in green fluorescence at 1 uM incubated for 24 hrs by DCFH-DA staining based flow cytometric analysis (reference value: 62.3 %)", "assay_type": "functional"}, "[25]": {"test_system": "MDA-MB-231", "assay": "Induction of morphological changes in human MDA-MB-231 assessed as cell rounding at 0.5 to 2 uM incubated for 48 hrs by microscopic analysis", "assay_type": "functional, cell-based", "details": "dose 0.5-2 µM"}}, "note": "Calls of active or inactive are those of the source. No cut-off for these calls is given here.", "data": [{"smiles": "O=C(/C=C/c1cn(S(=O)(=O)c2ccc([N+](=O)[O-])cc2)c2ccc(N3CCOCC3)cc12)c1cccnc1", "values": [{"measurement": "Activity", "setting": "[1]", "result": 88.4, "unit": "%"}, {"measurement": "IC50", "setting": "[2]", "result": 299, "unit": "nM"}, {"measurement": "IC50", "setting": "[3]", "result": 551, "unit": "nM"}, {"measurement": "Activity", "setting": "[4]", "result": "Active"}, {"measurement": "inhibition", "setting": "[5]", "result": "Active"}, {"measurement": "inhibition", "setting": "[6]", "result": "Active"}, {"measurement": "Activity", "setting": "[7]", "result": "Dose-dependent-effect"}, {"measurement": "Activity", "setting": "[8]", "result": "Active"}, {"measurement": "IC50", "setting": "[9]", "result": 561, "unit": "nM"}, {"measurement": "IC50", "setting": "[10]", "result": 707, "unit": "nM"}, {"measurement": "selectivity ratio", "setting": "[11]", "result": 5}, {"measurement": "Activity", "setting": "[12]", "result": "Dose-dependent-effect"}, {"measurement": "Activity", "setting": "[13]", "result": "Active"}, {"measurement": "Activity", "setting": "[14]", "result": 5.5, "unit": "%"}, {"measurement": "IC50", "setting": "[15]", "result": 1640, "unit": "nM"}, {"measurement": "Activity", "setting": "[16]", "result": "Time-dependent-effect"}, {"measurement": "IC50", "setting": "[17]", "result": 446, "unit": "nM"}, {"measurement": "IC50", "setting": "[18]", "result": 1170, "unit": "nM"}, {"measurement": "Activity", "setting": "[19]", "result": "Active"}, {"measurement": "Activity", "setting": "[20]", "result": "Active"}, {"measurement": "IC50", "setting": "[21]", "result": 1270, "unit": "nM"}, {"measurement": "Activity", "setting": "[22]", "result": "Active"}, {"measurement": "Activity", "setting": "[23]", "result": "Dose-dependent-effect"}, {"measurement": "Activity", "setting": "[24]", "result": 90.4, "unit": "%"}, {"measurement": "Activity", "setting": "[25]", "result": "Active"}]}]}
